Test results: patent publication US7118895B2, “Process for producing aglycon by using diglycosidase and flavor-improved food containing the aglycon and converting agent to be used in the process” (Amano Enzyme Inc., priority 2000, dated 2006)

System: Crude diglycosidase
Assay: Examination of pH in the conversion into isoflavone aglycons by diglycosidase using soybean materials
Type: biochemical, Penicillium multicolor IAM7153
Set-up: Decomposition efficiency of genistin family in soymilk / Decomposition efficiency of genistin family in defatted soybean / Decomposition efficiency of daidzin family in defatted soybean: concentration or dose not given beside the values
Details: for Decomposition efficiency of genistin family in roasted soy flour: 55° C.
Method in brief: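 HPLC detection of isoflavone glycosides and aglycons after ethanol quench at 0, 1, 3 and 6 h. Reactions ran at 55° C over pH 2–11, with crude diglycosidase (enzyme solution at 1.88 AU/mL) added to suspended roasted soy flour, soymilk, defatted soybean or concentrated soy protein.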

[1] = pH4.8, heat treatment of enzyme: no, reaction time 0 h
[2] = pH4.8, heat treatment of enzyme: no, reaction time 1 h
[3] = pH4.8, heat treatment of enzyme: no, reaction time 3 h
[4] = pH4.8, heat treatment of enzyme: no, reaction time 6 h
[5] = pH4.8, heat treatment of enzyme: yes, reaction time 6 h
[6] = pH6.6, heat treatment of enzyme: no, reaction time 0 h
[7] = pH6.6, heat treatment of enzyme: no, reaction time 1 h
[8] = pH6.6, heat treatment of enzyme: no, reaction time 3 h
[9] = pH6.6, heat treatment of enzyme: no, reaction time 6 h
[10] = pH6.6, heat treatment of enzyme: yes, reaction time 6 h

## O=c1c(-c2ccc(O)cc2)coc2cc(O[C@@H]3O[C@H](CO)[C@@H](O)[C@H](O)[C@H]3O)cc(O)c12 [genistin]
pH1.6, heat treatment of enzyme: no, reaction time 0 h
  Decomposition efficiency of genistin family in concentrated soybean protein: 49.7%
pH1.6, heat treatment of enzyme: no, reaction time 1 h
  Decomposition efficiency of genistin family in concentrated soybean protein: 50.2%
pH1.6, heat treatment of enzyme: no, reaction time 3 h
  Decomposition efficiency of genistin family in concentrated soybean protein: 51.6%
pH1.6, heat treatment of enzyme: no, reaction time 6 h
  Decomposition efficiency of genistin family in concentrated soybean protein: 53.3%
pH1.6, heat treatment of enzyme: yes, reaction time 6 h
  Decomposition efficiency of genistin family in concentrated soybean protein: 54.4%
pH2, heat treatment of enzyme no, reaction time 0 h
  Decomposition efficiency of genistin family in roasted soy flour: 50.0
pH2, heat treatment of enzyme no, reaction time 1 h
  Decomposition efficiency of genistin family in roasted soy flour: 49.7
pH2, heat treatment of enzyme no, reaction time 3 h
  Decomposition efficiency of genistin family in roasted soy flour: 50.7
pH2, heat treatment of enzyme no, reaction time 6 h
  Decomposition efficiency of genistin family in roasted soy flour: 52.7
pH2, heat treatment of enzyme yes, reaction time 6 h
  Decomposition efficiency of genistin family in roasted soy flour: 52.8
pH2.3, heat treatment of enzyme: no, reaction time 0 h
  Decomposition efficiency of genistin family in soymilk: 31.5%
pH2.3, heat treatment of enzyme: no, reaction time 1 h
  Decomposition efficiency of genistin family in soymilk: not detected
pH2.3, heat treatment of enzyme: no, reaction time 3 h
  Decomposition efficiency of genistin family in soymilk: not detected
pH2.3, heat treatment of enzyme: no, reaction time 6 h
  Decomposition efficiency of genistin family in soymilk: not detected
pH2.3, heat treatment of enzyme: yes, reaction time 6 h
  Decomposition efficiency of genistin family in soymilk: 35.5%
pH2.6, heat treatment of enzyme: no, reaction time 0 h
  Decomposition efficiency of genistin family in defatted soybean: 42.0%
pH2.6, heat treatment of enzyme: no, reaction time 1 h
  Decomposition efficiency of genistin family in defatted soybean: 36.3%
pH2.6, heat treatment of enzyme: no, reaction time 3 h
  Decomposition efficiency of genistin family in defatted soybean: 20.3%
pH2.6, heat treatment of enzyme: no, reaction time 6 h
  Decomposition efficiency of genistin family in defatted soybean: 20.1%
pH2.6, heat treatment of enzyme: yes, reaction time 6 h
  Decomposition efficiency of genistin family in defatted soybean: 44.3%
pH2.7, heat treatment of enzyme: no, reaction time 0 h
  Decomposition efficiency of genistin family in concentrated soybean protein: 49.7%
pH2.7, heat treatment of enzyme: no, reaction time 1 h
  Decomposition efficiency of genistin family in concentrated soybean protein: 23.1%
pH2.7, heat treatment of enzyme: no, reaction time 3 h
  Decomposition efficiency of genistin family in concentrated soybean protein: 22.1%
pH2.7, heat treatment of enzyme: no, reaction time 6 h
  Decomposition efficiency of genistin family in concentrated soybean protein: 17.5%
pH2.7, heat treatment of enzyme: yes, reaction time 6 h
  Decomposition efficiency of genistin family in concentrated soybean protein: 50.5%
pH3, heat treatment of enzyme no, reaction time 0 h
  Decomposition efficiency of genistin family in roasted soy flour: 50.0
pH3, heat treatment of enzyme no, reaction time 1 h
  Decomposition efficiency of genistin family in roasted soy flour: 3.4
pH3, heat treatment of enzyme no, reaction time 3 h
  Decomposition efficiency of genistin family in roasted soy flour: not detected
pH3, heat treatment of enzyme no, reaction time 6 h
  Decomposition efficiency of genistin family in roasted soy flour: not detected
pH3, heat treatment of enzyme yes, reaction time 6 h
  Decomposition efficiency of genistin family in roasted soy flour: 49.9
pH3.4, heat treatment of enzyme: no, reaction time 0 h
  Decomposition efficiency of genistin family in defatted soybean: 42.0%
pH3.4, heat treatment of enzyme: no, reaction time 1 h
  Decomposition efficiency of genistin family in defatted soybean: not detected
pH3.4, heat treatment of enzyme: no, reaction time 3 h
  Decomposition efficiency of genistin family in defatted soybean: not detected
pH3.4, heat treatment of enzyme: no, reaction time 6 h
  Decomposition efficiency of genistin family in defatted soybean: not detected
pH3.4, heat treatment of enzyme: yes, reaction time 6 h
  Decomposition efficiency of genistin family in defatted soybean: 44.3%
pH3.5, heat treatment of enzyme: no, reaction time 0 h
  Decomposition efficiency of genistin family in soymilk: 31.5%
pH3.5, heat treatment of enzyme: no, reaction time 1 h
  Decomposition efficiency of genistin family in soymilk: not detected
pH3.5, heat treatment of enzyme: no, reaction time 3 h
  Decomposition efficiency of genistin family in soymilk: not detected
pH3.5, heat treatment of enzyme: no, reaction time 6 h
  Decomposition efficiency of genistin family in soymilk: not detected
pH3.5, heat treatment of enzyme: yes, reaction time 6 h
  Decomposition efficiency of genistin family in soymilk: 37.0%
pH3.7, heat treatment of enzyme: no, reaction time 0 h
  Decomposition efficiency of genistin family in concentrated soybean protein: 50.7%
pH3.7, heat treatment of enzyme: no, reaction time 1 h
  Decomposition efficiency of genistin family in concentrated soybean protein: not detected
pH3.7, heat treatment of enzyme: no, reaction time 3 h
  Decomposition efficiency of genistin family in concentrated soybean protein: not detected
pH3.7, heat treatment of enzyme: no, reaction time 6 h
  Decomposition efficiency of genistin family in concentrated soybean protein: not detected
pH3.7, heat treatment of enzyme: yes, reaction time 6 h
  Decomposition efficiency of genistin family in concentrated soybean protein: 50.6%
pH4, heat treatment of enzyme no, reaction time 0 h
  Decomposition efficiency of genistin family in roasted soy flour: 49.9
pH4, heat treatment of enzyme no, reaction time 1 h
  Decomposition efficiency of genistin family in roasted soy flour: not detected
pH4, heat treatment of enzyme no, reaction time 3 h
  Decomposition efficiency of genistin family in roasted soy flour: not detected
pH4, heat treatment of enzyme no, reaction time 6 h
  Decomposition efficiency of genistin family in roasted soy flour: not detected
pH4, heat treatment of enzyme yes, reaction time 6 h
  Decomposition efficiency of genistin family in roasted soy flour: 50.2
[1]
  Decomposition efficiency of genistin family in defatted soybean: 40.5%
  Decomposition efficiency of genistin family in soymilk: 31.7%
[2]
  Decomposition efficiency of genistin family in defatted soybean: not detected
  Decomposition efficiency of genistin family in soymilk: not detected
[3]
  Decomposition efficiency of genistin family in defatted soybean: not detected
  Decomposition efficiency of genistin family in soymilk: not detected
[4]
  Decomposition efficiency of genistin family in defatted soybean: not detected
  Decomposition efficiency of genistin family in soymilk: not detected
[5]
  Decomposition efficiency of genistin family in defatted soybean: 31.8%
  Decomposition efficiency of genistin family in soymilk: 37.8%
pH5, heat treatment of enzyme no, reaction time 0 h
  Decomposition efficiency of genistin family in roasted soy flour: 49.9
pH5, heat treatment of enzyme no, reaction time 1 h
  Decomposition efficiency of genistin family in roasted soy flour: not detected
pH5, heat treatment of enzyme no, reaction time 3 h
  Decomposition efficiency of genistin family in roasted soy flour: not detected
pH5, heat treatment of enzyme no, reaction time 6 h
  Decomposition efficiency of genistin family in roasted soy flour: not detected
pH5, heat treatment of enzyme yes, reaction time 6 h
  Decomposition efficiency of genistin family in roasted soy flour: 52.6
pH5.1, heat treatment of enzyme: no, reaction time 0 h
  Decomposition efficiency of genistin family in concentrated soybean protein: 50.7%
pH5.1, heat treatment of enzyme: no, reaction time 1 h
  Decomposition efficiency of genistin family in concentrated soybean protein: not detected
pH5.1, heat treatment of enzyme: no, reaction time 3 h
  Decomposition efficiency of genistin family in concentrated soybean protein: not detected
pH5.1, heat treatment of enzyme: no, reaction time 6 h
  Decomposition efficiency of genistin family in concentrated soybean protein: not detected
pH5.1, heat treatment of enzyme: yes, reaction time 6 h
  Decomposition efficiency of genistin family in concentrated soybean protein: 51.4%
pH5.4, heat treatment of enzyme: no, reaction time 0 h
  Decomposition efficiency of genistin family in defatted soybean: 40.5%
pH5.4, heat treatment of enzyme: no, reaction time 1 h
  Decomposition efficiency of genistin family in defatted soybean: not detected
pH5.4, heat treatment of enzyme: no, reaction time 3 h
  Decomposition efficiency of genistin family in defatted soybean: not detected
pH5.4, heat treatment of enzyme: no, reaction time 6 h
  Decomposition efficiency of genistin family in defatted soybean: not detected
pH5.4, heat treatment of enzyme: yes, reaction time 6 h
  Decomposition efficiency of genistin family in defatted soybean: 6.2%
pH6.2, heat treatment of enzyme: no, reaction time 0 h
  Decomposition efficiency of genistin family in soymilk: 31.7%
pH6.2, heat treatment of enzyme: no, reaction time 1 h
  Decomposition efficiency of genistin family in soymilk: not detected
pH6.2, heat treatment of enzyme: no, reaction time 3 h
  Decomposition efficiency of genistin family in soymilk: not detected
pH6.2, heat treatment of enzyme: no, reaction time 6 h
  Decomposition efficiency of genistin family in soymilk: not detected
pH6.2, heat treatment of enzyme: yes, reaction time 6 h
  Decomposition efficiency of genistin family in soymilk: 38.3%
pH6.5, heat treatment of enzyme no, reaction time 0 h
  Decomposition efficiency of genistin family in roasted soy flour: 49.4
pH6.5, heat treatment of enzyme no, reaction time 1 h
  Decomposition efficiency of genistin family in roasted soy flour: not detected
pH6.5, heat treatment of enzyme no, reaction time 3 h
  Decomposition efficiency of genistin family in roasted soy flour: not detected
pH6.5, heat treatment of enzyme no, reaction time 6 h
  Decomposition efficiency of genistin family in roasted soy flour: not detected
pH6.5, heat treatment of enzyme yes, reaction time 6 h
  Decomposition efficiency of genistin family in roasted soy flour: 54.8
[6]
  Decomposition efficiency of genistin family in concentrated soybean protein: 50.4%
  Decomposition efficiency of genistin family in defatted soybean: 39.2%
[7]
  Decomposition efficiency of genistin family in concentrated soybean protein: 13.9%
  Decomposition efficiency of genistin family in defatted soybean: not detected
[8]
  Decomposition efficiency of genistin family in concentrated soybean protein: 3.8%
  Decomposition efficiency of genistin family in defatted soybean: not detected
[9]
  Decomposition efficiency of genistin family in concentrated soybean protein: 1.7%
  Decomposition efficiency of genistin family in defatted soybean: not detected
[10]
  Decomposition efficiency of genistin family in concentrated soybean protein: 53.2%
  Decomposition efficiency of genistin family in defatted soybean: 7.7%
pH7.2, heat treatment of enzyme: no, reaction time 0 h
  Decomposition efficiency of genistin family in soymilk: 31.2%
pH7.2, heat treatment of enzyme: no, reaction time 1 h
  Decomposition efficiency of genistin family in soymilk: not detected
pH7.2, heat treatment of enzyme: no, reaction time 3 h
  Decomposition efficiency of genistin family in soymilk: not detected
pH7.2, heat treatment of enzyme: no, reaction time 6 h
  Decomposition efficiency of genistin family in soymilk: not detected
pH7.2, heat treatment of enzyme: yes, reaction time 6 h
  Decomposition efficiency of genistin family in soymilk: 38.9%
pH7.8, heat treatment of enzyme: no, reaction time 0 h
  Decomposition efficiency of genistin family in defatted soybean: 40.4%
pH7.8, heat treatment of enzyme: no, reaction time 1 h
  Decomposition efficiency of genistin family in defatted soybean: 15.7%
pH7.8, heat treatment of enzyme: no, reaction time 3 h
  Decomposition efficiency of genistin family in defatted soybean: 12.3%
pH7.8, heat treatment of enzyme: no, reaction time 6 h
  Decomposition efficiency of genistin family in defatted soybean: 11.4%
pH7.8, heat treatment of enzyme: yes, reaction time 6 h
  Decomposition efficiency of genistin family in defatted soybean: 37.5%
pH8.5, heat treatment of enzyme no, reaction time 0 h
  Decomposition efficiency of genistin family in roasted soy flour: 55.8
pH8.5, heat treatment of enzyme no, reaction time 1 h
  Decomposition efficiency of genistin family in roasted soy flour: 28.7
pH8.5, heat treatment of enzyme no, reaction time 3 h
  Decomposition efficiency of genistin family in roasted soy flour: 19.2
pH8.5, heat treatment of enzyme no, reaction time 6 h
  Decomposition efficiency of genistin family in roasted soy flour: 14.5
pH8.5, heat treatment of enzyme yes, reaction time 6 h
  Decomposition efficiency of genistin family in roasted soy flour: 59.5
pH8.6, heat treatment of enzyme: no, reaction time 0 h
  Decomposition efficiency of genistin family in concentrated soybean protein: 53.8%
pH8.6, heat treatment of enzyme: no, reaction time 1 h
  Decomposition efficiency of genistin family in concentrated soybean protein: 50.4%
pH8.6, heat treatment of enzyme: no, reaction time 3 h
  Decomposition efficiency of genistin family in concentrated soybean protein: 45.1%
pH8.6, heat treatment of enzyme: no, reaction time 6 h
  Decomposition efficiency of genistin family in concentrated soybean protein: 36.3%
pH8.6, heat treatment of enzyme: yes, reaction time 6 h
  Decomposition efficiency of genistin family in concentrated soybean protein: 56.2%
pH11.6, heat treatment of enzyme: no, reaction time 0 h
  Decomposition efficiency of genistin family in soymilk: 34.8%
pH11.6, heat treatment of enzyme: no, reaction time 1 h
  Decomposition efficiency of genistin family in soymilk: not detected
pH11.6, heat treatment of enzyme: no, reaction time 3 h
  Decomposition efficiency of genistin family in soymilk: not detected
pH11.6, heat treatment of enzyme: no, reaction time 6 h
  Decomposition efficiency of genistin family in soymilk: not detected
pH11.6, heat treatment of enzyme: yes, reaction time 6 h
  Decomposition efficiency of genistin family in soymilk: 41.3%
